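In this assay, cells in 96-well plates receive the compound at five concentrations for 48 hours. Endpoints are linearly interpolated between the surrounding concentrations. GI50 marks 50% less growth. TGI: total growth inhibition.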 Bounds are passed on as bounds.

In PubChem BioAssay (NCI) one finds TGI and GI50 data, which are given here for 18 compounds.

Test systems include BT-549 breast; T-47D breast; UACC-62 melanoma; 786-0 renal; MDA-MB-231 breast; SK-MEL-28 melanoma; OVCAR-5 ovarian; MDA-N; DLD-1 colon; XF 498 CNS; KM20L2 colon; RXF-631 renal.
Holding throughout (assay): inhibition of tumour cell growth, NCI panel, 48 h

On to `N#Cc1c(-c2ccc(Cl)cc2)c2c([nH]c1=O)-c1cc([N+](=O)[O-])ccc1CCC2`, for which the TGI in the assay on BT-549 breast was 36.3 µM; in the assay on T-47D breast, over 100 µM; with UACC-62 melanoma, 32.4 µM; in the assay with 786-0 renal it was 79.9 µM; in the assay on MDA-MB-231 breast, 57.3 µM; in the assay with SK-MEL-28 melanoma, 63.6 µM. Besides, the figures for the TGI with OVCAR-5 ovarian and in the assay on MDA-N were 37.6 µM and over 100 µM, respectively.

As to `COP(=O)(OC)[C@H](O)[C@H]1C[C@@H]1c1ccccc1`, the TGI with BT-549 breast, with T-47D breast, with UACC-62 melanoma, with MDA-MB-231 breast, with SK-MEL-28 melanoma and in the assay on OVCAR-5 ovarian was over 100 µM throughout.

For `Cc1ccc(C(=O)Nc2ncn(C3CC(O)C(CO)O3)c(=O)n2)cc1` (stereo not drawn), the TGI in the assay on DLD-1 colon, in the assay with UACC-62 melanoma, in the assay with XF 498 CNS, with SK-MEL-28 melanoma and in the assay with OVCAR-5 ovarian was over 100 µM each time.

With `C/C(=C\C(=N\NC(=N)N)c1ccccc1)c1ccccc1`, the TGI in the assay with T-47D breast is 2.81 µM; in the assay with UACC-62 melanoma it was 3.23 µM; with 786-0 renal, 11.3 µM; in the assay with SK-MEL-28 melanoma, 8.86 µM; in the assay on OVCAR-5 ovarian, 3.35 µM; with MDA-N, 2.7 µM.

On to `CCN(CCO)CCNc1ccc(C)c2sc3ccccc3c(=O)c12`, for which the TGI in the assay with KM20L2 colon worked out at 7.27 µM; in the assay on BT-549 breast it was 26.7 µM; in the assay with DLD-1 colon, 14.2 µM; with T-47D breast it was 7.43 µM; in the assay on UACC-62 melanoma, 3.34 µM; with 786-0 renal, 8.57 µM. Moreover, the TGI with MDA-MB-231 breast was determined as 5.32 µM; in the assay with XF 498 CNS, 10 µM; with SK-MEL-28 melanoma it was 3.77 µM; with OVCAR-5 ovarian, 12.5 µM; in the assay on MDA-N, 3.16 µM.

Turning to `O=c1[nH]c(=O)n(CCOCP(=O)(O)O)nc1Br`, the TGI with BT-549 breast, in the assay with T-47D breast, in the assay on MDA-MB-231 breast, with SK-MEL-28 melanoma, with OVCAR-5 ovarian and in the assay with MDA-N was over 100 µM throughout.

On to `COc1ccc2c(c1)CCCc1c-2nc2ccccc2c1N`, for which the TGI in the assay with BT-549 breast came to 31 µM; in the assay with T-47D breast it was 31.3 µM; in the assay with UACC-62 melanoma it was 25.4 µM; in the assay on 786-0 renal, 18.5 µM; in the assay on MDA-MB-231 breast, 19 µM; with SK-MEL-28 melanoma, 25.5 µM. Besides, the TGI with OVCAR-5 ovarian was determined as 23.9 µM; in the assay on MDA-N it was 21.9 µM.

With `COc1ccc(N=Cc2ccc(N(CCC#N)S(=O)(=O)c3ccccc3)cc2C)cc1`, the TGI in the assay on KM20L2 colon, in the assay on UACC-62 melanoma, in the assay with RXF-631 renal, in the assay on XF 498 CNS, in the assay with SK-MEL-28 melanoma and in the assay with OVCAR-5 ovarian was over 100 µM each time.

As to `CN1NC(c2ccccc2)=C(C#N)C(=O)CC1c1ccc(F)cc1` (stereo not drawn), the TGI with DLD-1 colon, with RXF-631 renal, in the assay with XF 498 CNS, in the assay with SK-MEL-28 melanoma and in the assay on OVCAR-5 ovarian was over 100 µM in each case.

For the compound `CCCCCCCCCCCCSC(=S)c1c(C)[nH]n(CCCCCCCCCCCC)c1=O`, the TGI in the assay on KM20L2 colon, with DLD-1 colon, with UACC-62 melanoma, in the assay with RXF-631 renal, in the assay with SK-MEL-28 melanoma and in the assay on OVCAR-5 ovarian was over 100 µM each time.

For `Cc1cc(=O)n2c3c(c4c(cc13)c(CN(C)C)cc(=O)n4C)OC2`, the TGI is 83.8 µM in the assay with BT-549 breast; over 100 µM with T-47D breast; 30.1 µM in the assay with UACC-62 melanoma; over 100 µM with 786-0 renal; 98.7 µM with MDA-MB-231 breast; over 85.8 µM in the assay with SK-MEL-28 melanoma. For the same compound, the values for the TGI with OVCAR-5 ovarian and in the assay with MDA-N were over 77 µM and over 87.7 µM, respectively.

As for `O=C(NC(Cc1ccc(Cl)cc1)C(=O)O)c1ccc(I)cc1` (stereo not drawn), the TGI in the assay on DLD-1 colon, with UACC-62 melanoma, in the assay on XF 498 CNS, with SK-MEL-28 melanoma and in the assay with OVCAR-5 ovarian was over 100 µM in each case.

As to `C=C1CC2C3C=C(C)C4=CC(=O)CC[C@]4(C)C3CC[C@]2(C)[C@@]1(OC(C)=O)C(C)=O` (stereo partly drawn), the GI50 in the assay on UACC-62 melanoma was 3.38 µM; in the assay on OVCAR-5 ovarian, over 100 µM. Also, the TGI in the assay with UACC-62 melanoma and in the assay on OVCAR-5 ovarian was over 100 µM in each case.

Consider `Cc1cn(Cc2cn(CC3OC(n4cc(C)c(=O)[nH]c4=O)CC3O)nn2)c(=O)[nH]c1=O` (stereo not drawn), for which the TGI in the assay on BT-549 breast, with T-47D breast, with UACC-62 melanoma, in the assay with MDA-MB-231 breast, with SK-MEL-28 melanoma and in the assay with OVCAR-5 ovarian was over 100 µM each time. Further, the TGI in the assay with MDA-N is over 100 µM.

`O=CN1CCC23CC(O)CCC2C1Cc1cc(Oc2nnnn2-c2ccccc2)cc(O)c13` (stereo not drawn): the TGI in the assay on BT-549 breast, with T-47D breast, in the assay with UACC-62 melanoma, in the assay on 786-0 renal, with MDA-MB-231 breast and in the assay with SK-MEL-28 melanoma was over 100 µM throughout. Also, the TGI with OVCAR-5 ovarian and with MDA-N was over 100 µM throughout.

Consider `COc1cc(C2C(=O)C(Cl)N2Nc2nc(C)cc(=O)[nH]2)cc(OC)c1OC` (stereo not drawn), for which the TGI with KM20L2 colon was 66.5 µM; with SK-MEL-28 melanoma, 49.6 µM; in the assay with OVCAR-5 ovarian, over 100 µM.

Regarding `CCOC(=O)C12CC(C)=C(C)CC1CCCc1ccccc12` (stereo not drawn), the TGI was over 100 µM in the assay on BT-549 breast; 55.5 µM in the assay with T-47D breast; over 100 µM in the assay with UACC-62 melanoma; over 100 µM in the assay on 786-0 renal; 31.5 µM in the assay with MDA-MB-231 breast; 92.7 µM in the assay with SK-MEL-28 melanoma. For the same compound, the TGI in the assay with OVCAR-5 ovarian turned out to be 50.9 µM; in the assay on MDA-N it was 86.6 µM.

Regarding `O=S(=O)(O)c1ccc2c(N=Nc3ccccc3)c(O)ccc2c1`, the TGI in the assay with BT-549 breast, in the assay with T-47D breast, in the assay on UACC-62 melanoma, in the assay on 786-0 renal, in the assay with MDA-MB-231 breast and with SK-MEL-28 melanoma was over 100 µM throughout. The TGI in the assay with OVCAR-5 ovarian and with MDA-N was over 100 µM throughout.
